From patent US20240287108A1, “nSMASE2 INHIBITOR PRODRUGS WITH ENHANCED ORAL AND BRAIN EXPOSURES” (The Johns Hopkins University, priority 2021, published 2024)
Read-outs that look alike come from different tables or passages of the source.

Legend:
[1] = in vivo pharmacokinetic studies in mice (Example 1); parameters: species or system mouse; conditions: mice; for AUC / Tmax / Cmax: po
Experimental: 1.2.1 In vitro metabolic stability assessment. In vitro metabolic stability assessment was performed using mouse plasma, and liver homogenates. For the liver homogenates, washed tissues were diluted 10-fold in 0.1 M potassium phosphate buffer and homogenized using a probe sonicator. To evaluate the stability of the intact prodrug over time, each of the tissue matrix were aliquoted to 1 mL and then spiked with 10 μM of corresponding prodrugs followed by incubation in an orbital shaker at 37° C. for 1 h (in triplicate). Sample from each incubation at predetermined time points (0 min, and 1 h) was quenched with three volumes of acetonitrile containing the internal standard (IS: losartan: 0.5 μm). Samples were vortex-mixed for 30 secs and centrifuged at 10,000 RPM for 10 min at 4° C. Disappearance of the intact compound was measured using liquid chromatography tandem mass spectrometry (LC-MS/MS). 1.2.2 In vivo pharmacokinetic studies in mice. Male CD-1 mice (n=3) were used to study the pharmacokinetic profiles of representive prodrug compounds. […] Blood and brain were collected after sacrificing the mice at predetermined time points. Plasma was harvested from blood by centrifugation at 3,000 RPM for 15 min and stored at −80° C. Brain tissues were harvested following blood collection and immediately snap frozen in liquid nitrogen and stored at −80° C. until LC-MS/MS analysis. […] Brain tissues were diluted 1:5 w/v with acetonitrile containing losartan (0.5 μm) and homogenized, followed by vortex-mixing and centrifugation at 10,000 RPM for 10 min at 4° C. A 50 μL aliquot of the supernatant was diluted with 50 μL of water and transferred to 250 μL polypropylene autosampler vials sealed with teflon caps. Then, 2 μL of the sample was injected into the LC-MS/MS system for analysis.

[2] = in vitro stability in CES1−/− mouse brain homogenates; assay type: in vitro ADME; conditions: CES1−/− mouse brain homogenate, 10 μM, 37° C.
Experimental: (§1) All synthesized prodrugs were next screened for in vitro stability in carboxylesterase 1 knockout (CES1^−/−) mouse plasma, as well as CES1^−/− mouse brain and liver homogenates (Table 2-1). We have previously reported that CES1^−/− mouse model recapitulates human prodrug metabolism.
(§2) For the tissue homogenates, washed tissues were diluted 10-fold in 0.1 M potassium phosphate buffer and homogenized using a probe sonicator. To evaluate the stability of the intact prodrug over time, each of the crude homogenates and plasma were aliquoted to 1 mL and then spiked with a final assay concentration of 10 μM of each prodrug followed by incubation in an orbital shaker at 37° C. for 1 h (in triplicate). Sample from each incubation at predetermined time points (0 min, and 1 h) was quenched with three volumes of acetonitrile containing the internal standard (IS; losartan: 0.5 μm). Samples were vortex-mixed for 30 secs and centrifuged at 10,000×g for 10 min at 4° C. Disappearance of intact prodrugs from these samples were performed on a Dionex ultra-high-performance LC system coupled with Q Exactive Focus orbitrap mass spectrometer (Thermo Fisher Scientific Inc., Waltham MA). […] The mobile phase consisted of 0.1% formic acid in water and 0.1% formic acid in acetonitrile. Pumps were operated at a flow rate of 0.4 mL/min for 9 min using gradient elution. The mass spectrometer controlled by Xcalibur software 4.0.27.13 (Thermo Scientific) was operated with a heated electrospray ionization (HESI) ion source in positive ionization mode. Quantification of the prodrugs were performed in the full-scan mode (from m/z 50 to 1600) by comparing t=0 samples with t=60 min samples.

[3] = in vitro stability in CES1−/− mouse liver homogenates; assay type: in vitro ADME; conditions: CES1−/− mouse liver homogenate, 10 μM, 37° C.
Experimental: as §1, §2

[4] = in vitro stability in CES1−/− mouse plasma; assay type: in vitro ADME; conditions: 10 μM
Experimental: as §1, with “metabolism. Tenora et al., 2019.” for “metabolism.”
Zimmermann et al., 2018. For the tissue homogenates, washed tissues were diluted 10-fold in 0.1 M potassium phosphate buffer and homogenized using a probe sonicator. To evaluate the stability of the intact prodrug over time, each of the crude homogenates and plasma were aliquoted to 1 mL and then spiked with a final assay concentration of 10 μM of each prodrug followed by incubation in an orbital shaker at 37° C. for 1 h (in triplicate). Sample from each incubation at predetermined time points (0 min, and 1 h) was quenched with three volumes of acetonitrile containing the internal standard (IS; losartan: 0.5 μm). Samples were vortex-mixed for 30 secs and centrifuged at 10,000×g for 10 min at 4° C. Disappearance of intact prodrugs from these samples were performed on a Dionex ultra-high-performance LC system coupled with Q Exactive Focus orbitrap mass spectrometer (Thermo Fisher Scientific Inc., Waltham MA). The separation of analytes was achieved using the Agilent Eclipse Plus column (100×2.1 mm i.d.; maintained at 35° C.) packed with a 1.8 μm C18 stationary phase. The mobile phase consisted of 0.1% formic acid in water and 0.1% formic acid in acetonitrile. Pumps were operated at a flow rate of 0.4 mL/min for 9 min using gradient elution. The mass spectrometer controlled by Xcalibur software 4.0.27.13 (Thermo Scientific) was operated with a heated electrospray ionization (HESI) ion source in positive ionization mode. Quantification of the prodrugs were performed in the full-scan mode (from m/z 50 to 1600) by comparing t=0 samples with t=60 min samples.

[5] = male, CD-1, mouse, intact prodrug, brain, 10 mg/kg eqv
[6] = male, CD-1, mouse, intact prodrug, plasma, 10 mg/kg eqv
[7] = CES1−/− (carboxylesterase 1 knockout), mouse, plasma

Row | Structure (SMILES) | Stability in mouse (% remaining at 1h) Mean + Std Error, Brain [2] | Stability in mouse (% remaining at 1h) Mean + Std Error, Liver [3] | Stability in mouse (% remaining at 1h) Mean + Std Error, Plasma ([4]; CES1−/− mouse plasma, 37° C.) | other results
1 | COc1cc(-c2nc(-c3ccccc3)c(-c3cccs3)[nH]2)cc(OC)c1OC(=O)c1ccc[n+](C)c1.[I-] [Compound 6] |  |  |  | brain levels of DPTIP ([1]; oral 10 mg/kg DPTIP equivalent): approximately 150 nM
2 | CCCCCC(=O)Oc1c(OC)cc(-c2nc(-c3ccccc3)c(-c3cccs3)[nH]2)cc1OC [Compound P2, 2,6-Dimethoxy-4-(4-phenyl-5-(thiophen-2-yl)-1H-imidazol-2-yl)phenyl hexanoate] |  |  |  | Kp ([1]; male, CD-1, mouse, brain and plasma, oral, intact prodrug, 10 mg/kg eqv, read-out: Brain:Plasma ratio): 0.23; AUC [1, 5]: 1.66 nM·h; Tmax [1, 5]: 15 min; Cmax ([1]; male, CD-1, mouse, intact prodrug, brain, 10 mg/kg eqv, read-out: Cmax): 9.8 ± 0.6 nM; AUC [1, 6]: 7.04 nM·h; Tmax [1, 6]: 15 min; Cmax ([1]; male, CD-1, mouse, intact prodrug, plasma, 10 mg/kg eqv, read-out: Cmax): 51.1 ± 4.6 nM
3 | COc1cc(-c2nc(-c3ccccc3)c(-c3cccs3)[nH]2)cc(OC)c1OC(=O)C(C)(C)C [Compound P4, 2,6-Dimethoxy-4-(4-phenyl-5-(thiophen-2-yl)-1H-imidazol-2-yl)phenyl pivalate] | 93 ± 1% |  |  | 
4 | COc1cc(-c2nc(-c3ccccc3)c(-c3cccs3)[nH]2)cc(OC)c1OC(=O)N(C)C [Compound P5, 2,6-Dimethoxy-4-(4-phenyl-5-(thiophen-2-yl)-1H-imidazol-2-yl)phenyl dimethylcarbamate] | 100 ± 2% | 100 ± 1% | 96 ± 3% | Cmax ([1]; male, CD-1, mouse, in vivo, 10 mg/kg, oral 10 mg/kg DPTIP equivalent, read-out: plasma Cmax of intact prodrug): 4300 nM; improved oral absorption as intact versus DPTIP ([1]; plasma Cmax, oral 10 mg/kg DPTIP equivalent): 10 ×
5 | CCCCCN(C)C(=O)Oc1c(OC)cc(-c2nc(-c3ccccc3)c(-c3cccs3)[nH]2)cc1OC [Compound P7, 2,6-Dimethoxy-4-(5-phenyl-4-(thiophen-2-yl)-1H-imidazol-2-yl)phenyl methyl (pentyl) carbamate] |  | 85 ± 3% | 50 ± 2% | 
6 | CCCCCNC(=O)Oc1c(OC)cc(-c2nc(-c3ccccc3)c(-c3cccs3)[nH]2)cc1OC [Compound P8, 2,6-Dimethoxy-4-(5-phenyl-4-(thiophen-2-yl)-1H-imidazol-2-yl)phenyl pentylcarbamate] |  | 83 ± 2% | 60 ± 6% | 
7 | CCCCCCCNC(=O)Oc1c(OC)cc(-c2nc(-c3ccccc3)c(-c3cccs3)[nH]2)cc1OC [Compound P9, 2,6-Dimethoxy-4-(5-phenyl-4-(thiophen-2-yl)-1H-imidazol-2-yl)phenyl heptylcarbamate] | 84 ± 4% | 97 ± 4% | 60 ± 4% | 
8 | CCC1CCCC(CC)N1C(=O)Oc1c(OC)cc(-c2nc(-c3ccccc3)c(-c3cccs3)[nH]2)cc1OC (centres unmarked) [Compound P10, 2,6-Dimethoxy-4-(5-phenyl-4-(thiophen-2-yl)-1H-imidazol-2-yl)phenyl 2,6-diethylpiperidine-1-carboxylate] | 90 ± 1% | 51 ± 1% |  | Stability in mouse (% remaining at 1h) Mean + Std Error, Plasma [4, 7]: 78 ± 5%
9 | CCCN(CCC)C(=O)Oc1c(OC)cc(-c2nc(-c3ccccc3)c(-c3cccs3)[nH]2)cc1OC [Compound P11, 2,6-Dimethoxy-4-(5-phenyl-4-(thiophen-2-yl)-1H-imidazol-2-yl)phenyl dipropylcarbamate] | 95 ± 4% | 62 ± 4% | 99 ± 2% | 
10 | COc1cc(-c2nc(-c3ccccc3)c(-c3cccs3)[nH]2)cc(OC)c1OC(=O)N1C2CCCC1CC2 [Compound P12, 2,6-Dimethoxy-4-(5-phenyl-4-(thiophen-2-yl)-1H-imidazol-2-yl)phenyl 8-azabicyclo[3.2.1]octane-8-carboxylate] |  |  |  | Stability in mouse (% remaining at 1h) Mean + Std Error, Plasma [4, 7]: 85 ± 9%
11 | COc1cc(-c2nc(-c3ccccc3)c(-c3cccs3)[nH]2)cc(OC)c1OC(=O)N1C2CCC1CC(N1CCCCC1)C2 (centres unmarked) [Compound P13, 2,6-Dimethoxy-4-(5-phenyl-4-(thiophen-2-yl)-1H-imidazol-2-yl)phenyl 3-(piperidin-1-yl)-8-azabicyclo[3.2.1]octane-8-carboxylate] | 84 ± 1% | 78 ± 4% | 87 ± 2% | 
12 | COc1cc(-c2nc(-c3ccccc3)c(-c3cccs3)[nH]2)cc(OC)c1OP(=O)(O)O [Compound P14, 2,6-Dimethoxy-4-(4-phenyl-5-(thiophen-2-yl)-1H-imidazol-2-yl)phenyl dihydrogen phosphate] | 102 ± 2% | 55 ± 1% | 91 ± 4% | 
13 | COc1cc(-c2nc(-c3ccccc3)c(-c3cccs3)[nH]2)cc(OC)c1OCOP(=O)(O)O [Compound P15, (2,6-Dimethoxy-4-(4-phenyl-5-(thiophen-2-yl)-1H-imidazol-2-yl)phenoxy) methyl dihydrogen phosphate] |  | 21 ± 0% |  | 
